Results from patent US11512053B2, “Arginine methyltransferase inhibitors and uses thereof” (priority 2013, dated 2022).

Target: T1, full-length human PRMT3 isoform 1 (GST-tagged) (Homo sapiens, UniProt O60678)
T1 construct: GST-tagged PRMT3; made in house; host or cells: E. coli BL21(DE3) Gold
Assay: PRMT3 Biochemical Assay (3H-SAM Flashplate, peptide substrate)
Settings: single experiment or average of multiple experiments
Excerpt: General Materials. S-adenosylmethionine (SAM), S-adenosylhomocysteine (SAH), bicine, Tween20, dimethylsulfoxide (DMSO), bovine skin gelatin (BSG),), isopropyl-β-D-thiogalactopyranoside (IPTG), and Tris(2-carboxyethyl)phosphine hydrochloride solution (TCEP) were purchased from Sigma-Aldrich at the highest level of purity possible. ^3H-SAM was purchase from American Radiolabeled Chemicals with a specific activity of 80 Ci/mmol. 384-well streptavidin Flashplates were purchased from PerkinElmer.
Substrates. Peptide containing the classic RMT substrate motif was synthesized with an N-terminal linker-affinity tag motif and a C-terminal amide cap by 21st Century Biochemicals. The peptide was purified by high-performance liquid chromatography (HPLC) to greater than 95% purity and confirmed by liquid chromatography mass spectrometry (LC-MS). The sequence was Biot-Ahx-[…]-amide (SEQ ID NO.:11).
Molecular Biology: Full-length human PRMT3 (NM_005788.3) isoform 1 transcript clone was amplified from an HEK 293 cDNA library and subcloned into pGEX-KG (GE Life Sciences). The resulting construct encodes an N-terminal GST tag and a thrombin cleavage sequence ([…] […] […] […] S) (SEQ ID NO.:12) fused directly to Cys 2 of PRMT3.
Protein Expression. E. coli (BL21(DE3) Gold, Stratagene) made competent by the CaCl2) method were transformed with the PRMT3 construct and ampicillin selection. Protein over-expression was accomplished by growing the PRMT3 expressing E. coli clone and inducing expression with 0.3 mM IPTG at 16° C. The culture was grown for 12 hours, harvested by centrifugation, and stored at −80° C. for purification.
Protein Purification. […] GST-tagged PRMT3 was eluted with 50 mM Tris, 2 mM glutathione, pH 7.1 and 50 mM Tris, 20 mM glutathione, pH 7.1. Pooled fractions were dialysed in 20 mM Tris, 50 mM NaCl, 5% glycerol, 1 mM EDTA, 1 mM DTT, pH7.5 (Buffer B) and applied to a Q Sepharose Fast Flow column. GST-tagged PRMT3 was eluted by 500 mM NaCl in buffer B. Pooled fractions were dialyzed in 25 mM phosphate buffer, 100 mM NaCl, 5% glycerol, 2 mM DTT, pH 6.8 (Buffer C) and loaded on to a ceramic hydroxyapatite column. GST-tagged PRMT3 eluted with 25-400 mM phosphate in buffer C. Protein was concentrated and buffer was exchanged to 20 mM Tris, 150 mM NaCl, 5% glycerol, 5 mM β-mercaptoethanol, pH7.8 by ultrafiltration. The purity of recovered protein was 70%.
General Procedure for PRMT3 Enzyme Assays on Peptide Substrates. The assays were all performed in a buffer consisting of 20 mM Bicine (pH=7.6), 1 mM TCEP, 0.005% BSG, and 0.002% Tween 20, prepared on the day of use. Compounds in 100% DMSO (1 ul) were spotted into a polypropylene 384-well V-bottom plates (Greiner) using a Platemate Plus outfitted with a 384-channel head (Thermo Scientific). DMSO (1 ul) was added to Columns 11, 12, 23, 24, rows A-H for the maximum signal control and 1 ul of SAH, a known product and inhibitor of PRMT3, was added to columns 11, 12, 23, 24, rows I-P for the minimum signal control. A cocktail (40 ul) containing the PRMT3 enzyme was added by Multidrop Combi (Thermo-Fisher). The compounds were allowed to incubate with PRMT3 for 30 min at room temperature, then a cocktail (10 ul) containing SAM and peptide was added to initiate the reaction (final volume=51 ul). The final concentrations of the components were as follows: PRMT3 was 0.5 nM, ^3H-SAM was 100 nM, non-radiolabeled SAM was 1.8 uM, peptide was 330 nM, SAH in the minimum signal control wells was 1 mM, and the DMSO concentration was 2%. The assays were stopped by the addition of potassium chloride (10 ul) to a final concentration of 100 mM. 50 ul of the reaction in the 384-well polypropylene plate was then transferred to a 384-well Flashplate and the biotinylated peptides were allowed to bind to the streptavidin surface for at least 1 hour before being washed once with 0.1% Tween20 in a Biotek ELx405 plate washer. […]

T1 sequence (O60678 with tags, fused parts or gaps): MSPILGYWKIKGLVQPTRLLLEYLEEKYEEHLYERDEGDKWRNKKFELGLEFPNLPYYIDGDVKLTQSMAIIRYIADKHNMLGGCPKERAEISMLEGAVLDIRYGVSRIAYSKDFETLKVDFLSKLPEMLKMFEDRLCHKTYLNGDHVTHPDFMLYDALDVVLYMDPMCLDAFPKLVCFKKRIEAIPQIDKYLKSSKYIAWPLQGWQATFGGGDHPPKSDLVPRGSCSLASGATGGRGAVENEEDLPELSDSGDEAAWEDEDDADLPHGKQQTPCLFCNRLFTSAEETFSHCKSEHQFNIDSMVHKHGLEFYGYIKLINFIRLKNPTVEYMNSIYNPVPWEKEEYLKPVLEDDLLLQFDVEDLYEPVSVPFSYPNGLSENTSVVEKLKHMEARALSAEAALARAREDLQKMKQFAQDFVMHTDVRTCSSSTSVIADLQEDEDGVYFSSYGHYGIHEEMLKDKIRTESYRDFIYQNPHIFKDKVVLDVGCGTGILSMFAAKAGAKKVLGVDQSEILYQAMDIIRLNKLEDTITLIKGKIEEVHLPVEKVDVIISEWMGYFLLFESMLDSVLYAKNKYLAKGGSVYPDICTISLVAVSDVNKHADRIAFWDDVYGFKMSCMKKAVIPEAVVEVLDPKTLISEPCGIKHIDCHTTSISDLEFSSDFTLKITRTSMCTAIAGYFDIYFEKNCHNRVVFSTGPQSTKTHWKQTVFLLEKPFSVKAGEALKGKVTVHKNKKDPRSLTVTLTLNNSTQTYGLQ

Compound `CNCCN(C)Cc1c[nH]nc1C#Cc1ccccc1` [Compound 3] has an IC50 of 9.4 µM.
